Test results: patent US20210316010A1, “DRUG DELIVERY PRODUCT, COMPOSITION AND SYSTEM” (MASTER DYNAMIC LIMITED, priority 2018, published 2021)

What was measured:
HeLa cells = settings: treatment for 5 h; cited from earlier work
SAS cells = assay: Monolayer 2D SAS cellular uptake, confocal laser scanning microscopy; type: cell-based, Human; settings: 4 hrs incubation, DOX 20 μg/ml
Excerpt: Intracellular trafficking and distribution of DOX within SAS cells were used to further investigate the outcomes, by using confocal laser scanning microscopy (CLSM), as shown in the images of FIGS. 21 and 21I.
The 50 nm ND fluorescence was excited with 488 nm, and collected in range 500-515 nm. The ND's fluorescence in this range corresponds predominantly to emission from diamond H^3 defect centers with emission peak near 505 nm, shown as green colour 206. The bright fields as evidenced, were also provided to reveal the morphologies of SAS cells.
Human Oral Squamous Carcinoma cell (SAS) cells were cultured in DMEM medium (Gibco, Invitrogen, UK). The medium was supplemented with 2 mM L-glutamine (Invitrogen, USA), 1.5 g/L sodium bicarbonate (Sigma, UK), 10% fetal bovine serum (Gibco/Life Technologies, Carlsbad, Calif., USA).
Cells were maintained under standard cell culture conditions in an incubator (Galaxy 170S, Eppendorf, USA) containing 95% air and 5% CO2 at 37° C. humid environment.
Culture medium was replaced with a fresh medium every 48 or 72 hr. […]
Unreacted samples were removed by washing. […] The emission of DOX was absorbed at 570-590 nm and ND was detected at 500-515 nm.

SAS MCTS = assay: Penetration and distribution in SAS multicellular tumor spheroids (MCTS), confocal microscopy; type: cell-based, Human; settings: after 1 day of incubation
Experimental: In order to investigate the penetration of DOX with different formulations (ND-DOX and ND-HSA-DOX) in tissue model in vitro, SAS MCTS were used to incubate with ND, free DOX, ND-DOX and ND-HSA-DOX.
The ND and DOX with different formulations complex uptake and distribution in SAS MCTS model was monitored by using CLSM.
The cell nuclei were stained with Hoechst […] which emits blue fluorescence (440 nm-484 nm), cell membrane were dyed with 3,3′-dipentyloxacarbocyanine iodide (DIOC'5), and the signal was collected in the 520-555 nm range, shown in red color.
In order to promote the multicellular tumor spheroids (MCTS) formation, SAS cells were seeded in Gravity TRAP ULA Plate, by Insphero, at a density of 5,000 cells per well and cultured at 37° C. with 5% CO2 for 3 days before drug treatment.
For the distributions of ND, DOX, ND-DOX and ND-HSA-DOX within MCTS were determined by confocal laser microscopy.
SAS MCTS were treated with ND, DOX, ND-DOX and ND-HSA-DOX for 4 days. Each day, one of treatment MCTS was harvested and fixed with 3.7% formaldehyde for 24 h. Washing the MCTS 3 time with PBS, and MCTS was incubated with DIOC'5 for 24 h. After washing 3 times, Hoechst 33342 was incubated with MCTS for 24 h. Then MCTS was observed by confocal microscopy.

COc1cccc2c1C(=O)c1c(O)c3c(c(O)c1C2=O)C[C@@](O)(C(=O)CO)C[C@@H]3O[C@H]1C[C@H](N)[C@H](O)[C@H](C)O1.Cl [DOX, doxorubicin hydrochloride]
intracellular location of DOX (HeLa cells): located in nuclear of HeLa cells | intracellular distribution of DOX (SAS cells): distributed on cytoplasm | penetration in SAS MCTS (SAS MCTS): limited to the outer cell layers
